{"source": "patent US9107411B2", "about": "“Indolecarboxamides and benzimidazolecarboxamides as insecticides and acaricides” (BAYER INTELLECTUAL PROPERTY GMBH, priority 2011, dated 2015)", "key": {"[1]": {"test_system": "Ctenocephalides felis", "experiment": "Ctenocephalides felis oral (CTECFE)", "type": "in vivo", "details": "application rate 100 ppm in citrated cattle blood; after 2 days", "how_it_was_run": "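About 20 unfed adult fleas fed through a Parafilm membrane on citrated cattle blood containing the compound at the desired concentration, diluted from a DMSO concentrate. Kill in % was scored after 2 days, where 100% means all fleas dead and 0% none.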"}, "[2]": {"test_system": "adult Musca domestica", "experiment": "Musca domestica test (MUSCDO)", "type": "in vivo", "details": "application rate 100 ppm; treated sponge; after 2 days", "how_it_was_run": "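Compound dissolved in DMSO and diluted with water to the desired concentration was applied to a sponge, and vessels were populated with adult flies. Kill % was scored after 2 days, where 100% means all flies dead.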"}, "[3]": {"test_system": "Aulacophora femoralis", "experiment": "Aulacophora femoralis spray test (AUACFE)", "type": "in vivo", "details": "application rate 20 ppm; cucumber plants, L2 larvae; after 6 days", "experimental": "Aulacophora femoralis Spray Test (AUACFE) Solvent: 3 parts by weight of dimethylformamide Emulsifier: 1 part by weight of polyoxyethylene alkylphenyl ether To produce an appropriate active ingredient formulation, 1 part by weight of active ingredient is mixed with the stated amounts of solvent and emulsifier, and the concentrate is diluted with emulsifier-containing water to the desired concentration. If required, ammonium salts or ammonium salts and penetrants are additionally added in a concentration of 1000 ppm. Young cucumber plants (Cucumis sativus) at the cotyledonous leaf stage are sprayed with an active ingredient formulation of the desired concentration. After drying, the treated plant material is introduced into test vessels and each is infected with 5 L2 larvae of the cucurbit leaf beetle (Aulacophora femoralis). After 6 days, the efficacy in % is determined. 100% means that all of the beetle larvae have been killed; 0% means that none of the beetle larvae have been killed."}, "[4]": {"test_system": "Myzus persicae", "experiment": "Myzus persicae spray test (MYZUPE - OP/Carb-resistant)", "type": "in vivo", "details": "application rate 100 ppm; aubergine plants; after 6 days", "experimental": "Myzus persicae Spray Test (MYZUPE—OP/Carb-Resistant)\nSolvent: 3 parts by weight of dimethylformamide\nEmulsifier: 1 part by weight of polyoxyethylene alkylphenyl ether\nTo produce an appropriate active ingredient formulation, 1 part by weight of active ingredient is mixed with the stated amounts of solvent and emulsifier, and the concentrate is diluted with emulsifier-containing water to the desired concentration. If required, ammonium salts or ammonium salts and penetrants are additionally added in a concentration of 1000 ppm.\nAubergine plants (Solanum melongena) at the 2-leaf stage, which have been infested with a mixed population of the green peach aphid (Myzus persicae), are sprayed with an active ingredient formulation of the desired concentration.\nAfter 6 days, the efficacy in % is determined. 100% means that all of the aphids have been killed; 0% means that none of the aphids have been killed."}, "[5]": {"test_system": "Spodoptera litura", "experiment": "Spodoptera litura test (PRODLI)", "type": "in vivo", "details": "application rate 20 ppm; synthetic feed, L3 larvae; after 6 days", "experimental": "Spodoptera litura Test (PRODLI) Solvent: 3 parts by weight of dimethylformamide Emulsifier: 1 part by weight of polyoxyethylene alkylphenyl ether To produce an appropriate active ingredient formulation, 1 part by weight of active ingredient is mixed with the stated amounts of solvent and emulsifier, and the concentrate is diluted with emulsifier-containing water to the desired concentration. The base of a PET vessel (diameter 7.5 cm, depth 4 cm) is covered with 2.3 g of a pulverulent synthetic feed mixture. Then 5 ml of the active ingredient formulation are added and mixed at the same time with the synthetic feed. After gelation, 5 L3 larvae of the cotton leafworm (Spodoptera litura) are placed into each vessel. After 6 days, the efficacy in % is determined 100% means that all of the larvae have been killed; 0% means that none of the larvae have been killed."}, "[6]": {"test_system": "Phaedon cochleariae", "experiment": "Phaedon test (PHAECO spray treatment)", "type": "in vivo", "details": "application rate 100 g/ha, Chinese cabbage leaf discs, after 7 days", "how_it_was_run": "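Chinese cabbage leaf discs were sprayed with compound in acetone/DMF with emulsifier, diluted in water to the test concentration. After drying, discs were infested with mustard beetle larvae. Efficacy in % was scored after 7 days, where 100% means all larvae were killed and 0% means none.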"}, "[7]": {"test_system": "Spodoptera frugiperda", "experiment": "Spodoptera frugiperda test (SPODFR spray treatment)", "type": "in vivo", "details": "application rate 100 g/ha; maize leaf discs; after 7 days", "how_it_was_run": "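Maize leaf discs sprayed with active ingredient formulated in acetone/dimethylformamide with emulsifier, diluted in emulsifier-containing water to the desired concentration. After drying, discs were populated with armyworm caterpillars. Efficacy (%) scored after 7 days: 100% all caterpillars killed, 0% none killed.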"}, "[8]": {"test_system": "Tetranychus urticae", "experiment": "Tetranychus test, OP-resistant (TETRUR spray treatment)", "type": "in vivo", "details": "application rate 100 g/ha; bean leaf discs; after 6 days", "how_it_was_run": "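Bean leaf discs infested with all stages of OP-resistant T. urticae sprayed with compound formulated in acetone/DMF plus alkylaryl polyglycol ether emulsifier, diluted in water. Efficacy (% mites killed) scored after 6 days.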"}, "[9]": {"experiment": "logP (HPLC-MS)", "type": "physicochemical"}}, "note": "Read-outs that look alike come from different tables or passages of the source."}
{"smiles": "C#CCn1c(C(=O)NC(c2ccc(F)c(C(F)(F)F)c2)C(F)(F)F)cc2cc(C(=O)NC3CC3)c(Cl)cc21", "note": "(stereo not shown) [Compound 6]", "values": [{"measurement": "efficacy (kill in %)", "setting": "[1]", "value": 100, "unit": "%"}, {"measurement": "efficacy (kill in %)", "setting": "[2]", "value": 100, "unit": "%"}, {"measurement": "efficacy in %", "setting": "[3]", "value": 100, "unit": "%"}, {"measurement": "efficacy in %", "setting": "[4]", "value": 90, "unit": "%"}, {"measurement": "efficacy in %", "setting": "[5]", "value": 100, "unit": "%"}, {"measurement": "efficacy in %", "setting": "[6]", "value": 100, "unit": "%"}, {"measurement": "efficacy in %", "setting": "[7]", "value": 100, "unit": "%"}, {"measurement": "efficacy in %", "setting": "[8]", "value": 80, "unit": "%"}, {"measurement": "log p", "setting": "[9]; HPLC, reversed-phase column (C18), acidic range pH 2.7, acetonitrile (0.1% formic acid)/water gradient, 43° C., calibration with unbranched alkan-2-ones", "value": 3.59}]}
{"smiles": "CCn1c(C(=O)NC(c2cccc(C(F)(F)F)c2)C(F)(F)F)cc2cc(C(=O)NC3(C#N)CC3)c(Cl)cc21", "note": "(stereo not shown) [Compound 7, 6-chloro-N^5-(1-cyanocyclopropyl)-1-ethyl-N^2-{2,2,2-trifluoro-1-[3-(trifluoromethyl)phenyl]ethyl}-1H-indole-2,5-dicarboxamide]", "values": [{"measurement": "efficacy (kill in %)", "setting": "[1]", "value": 100, "unit": "%"}, {"measurement": "efficacy (kill in %)", "setting": "[2]", "value": 100, "unit": "%"}, {"measurement": "efficacy in %", "setting": "[3]", "value": 100, "unit": "%"}, {"measurement": "efficacy in %", "setting": "[4]", "value": 98, "unit": "%"}, {"measurement": "efficacy in %", "setting": "[5]", "value": 100, "unit": "%"}, {"measurement": "pest or weed control at 100 g/ha", "setting": "[6]; Phaedon cochleariae, foliar, 168 h, read-out: efficacy in %", "value": 100, "unit": "%"}, {"measurement": "efficacy in %", "setting": "[7]", "value": 100, "unit": "%"}, {"measurement": "efficacy in %", "setting": "[8]", "value": 100, "unit": "%"}, {"measurement": "chromatographic logP", "setting": "[9]; HPLC, reversed-phase column (C18), acidic range pH 2.7, acetonitrile (0.1% formic acid)/water gradient, 43° C., calibration with unbranched alkan-2-ones, read-out: log p", "value": 3.78}, {"measurement": "chromatographic logP", "setting": "[9]; HPLC-MS", "value": 3.8}]}
